From patent publication US20230285339A1, “THERAPIES FOR TREATING AML AND USES OF RARA AGONISTS, HYPOMETHYLATING AGENTS, AND BCL-2 INHIBITORS” (Syros Pharmaceuticals, Inc., priority 2020, published 2023)

System: AML samples
Experiment: Beat AML ex vivo venetoclax sensitivity, proliferation assay on AML patient samples (AUC and IC50)
Assay type: cell-based, human
Procedure: Venetoclax sensitivity in BeatAML: The BeatAML dataset a/so included ex vivo sensitivity analysis for a panel of 121 inhibitors, including venetoclax, in a proliferation assay on 248 of the AML samples measured by area under the curve (AUC) and IC50. Only some of the patient samples were queried for each inhibitor. Of the samples with at least 40% blasts, 90 were tested for venetoclax ex vivo sensitivity. To define the best possible association of gene expression with venetoclax AUC, we performed a logistic regression model with lasso regularization to predict venetoclax AUC from the expression of all expressed genes using the expression matrix quantile normalized with the TCGA dataset. The R package glmnet was used as described above in the section “Development of monocytic expression signature in TCGA.”
To define samples sensitive to venetoclax, we first identified an IC50 that could separate sensitive samples from insensitive samples, as follows. We consulted two references (Bogenberger et al., Oncotarget 8:107206-107222, 2017) and Ramsey et al. Cancer Discovery 8:1566-1581, 2018) that defined sensitive AML cells in the range of 20-60 nM and resistant AML cells around 1 μM, and we choose 100 nM as a threshold that splits this range. We then mapped 100 nM IC50 values from the BeatAML venetoclax ex vivo assay to AUC, which is a more robust quantitative measure of sensitivity, by selecting the AUC below which all samples have an IC50<100 nM, which led to the AUC threshold of 130. At this threshold, we found 35 AML samples sensitive to venetoclax and 55 AML samples resistant to venetoclax.
In the methods, RARA gene expression in non-APL AML was evaluated in the TCGA and Beat AML RNA-seq datasets. AUC of cell viability curves were used to evaluate ex vivo sensitivity to compounds, including venetoclax, in the Beat AML dataset. A monocytic MES was developed using the expression of monocytic and primitive RNA markers in the TCGA dataset to analyze the monocytic phenotype. The MES used a logistic regression model with lasso regularization to distinguish FAB M4/5 (monocytic) from FAB M0/1/2 (primitive) using 10-fold cross-validation with 85% sensitivity and 80% specificity. The MES was then applied to the RNA-seq datasets from Beat AML and AML blasts from ND unfit AML patients in the ongoing tamibarotene-plus-azacitidine trial (NCT02807558), in which RARA-positive patients were determined by an RT-qPCR-based biomarker clinical trial assay (CTA). The MES, RARA expression, and venetoclax resistance-associated features were compared using Spearman's rho correlation; the association of the MES with the RARA biomarker and with IWG clinical responses in tamibarotene plus Aza treated patients was evaluated.

CC1(C)CCC(CN2CCN(c3ccc(C(=O)NS(=O)(=O)c4ccc(NCC5CCOCC5)c([N+](=O)[O-])c4)c(Oc4cnc5[nH]ccc5c4)c3)CC2)=C(c2ccc(Cl)cc2)C1 [venetoclax] showed an AML samples resistant (All 90 samples, AUC threshold 130) of 55, a Percent sensitive (All patients (90 AML samples), AUC threshold 130) of 39% and a N sensitive (All patients (90 AML samples, at least 40% blasts), sensitive = AUC below threshold of 130 (IC50<100 nM)) of 35. For the same compound, the Percent sensitive (Monocytic AML patients (MES>0.5), N total 44) was 11%, the N sensitive (Primitive AML patients (MES<0.5), N total 46) was 30 and the Percent sensitive (Primitive AML patients, N total 46) was 65%. It also gave a Percent sensitive (RARA-high patients, N total 21) of 0%, a N sensitive (RARA-low patients, N total 69) of 35 and a Percent sensitive (RARA-low patients, N total 69) of 51%.
